Measurements taken from the RepoRT retention time repository (doi:10.1016/j.foodchem.2012.08.062).

assay: RP, Waters ACQUITY UPLC BEH Shield RP18, 150 × 3 mm, 1.7 µm, 40 °C, 0.5 mL/min, estimated dead time 1.4 min; A: water + 0.1% formic acid; B: acetonitrile + 0.1% formic acid; gradient (min/%B) 0/0 9.91/26 18.51/65 18.76/100 20.76/100; settings: stereoisomer not certain

Structure (SMILES) | LC retention time
O=C(O)c1ccccc1O | 14.5 min
O=c1cc(-c2ccc(O)cc2)oc2cc(O)cc(O)c12 | 18 min
CCCOC(=O)c1cc(O)c(O)c(O)c1 | 13.8 min
O=c1c(OC2OC(CO)C(O)C(O)C2O)c(-c2ccc(O)cc2)oc2cc(O)cc(O)c12 (stereo not given) | 13.8 min
COc1cc(C=CC(=O)O)ccc1O | 12.8 min
O=C(O)C=Cc1ccc(O)cc1 | 12.7 min
COc1cc(-c2oc3cc(O)cc(O)c3c(=O)c2O)ccc1O | 18.1 min
O=c1c(O)c(-c2ccc(O)cc2)oc2cc(O)cc(O)c12 | 18.4 min
CC1OC(OC2C(Oc3cc(O)c4c(c3)OC(c3ccc(O)cc3)CC4=O)OC(CO)C(O)C2O)C(O)C(O)C1O (stereo not given) | 13 min
O=c1c(OC2OC(CO)C(O)C2O)c(-c2ccc(O)c(O)c2)oc2cc(O)cc(O)c12 (stereo not given) | 13.7 min
O=C1CC(c2ccc(O)cc2)Oc2cc(O)cc(O)c21 (stereo not given) | 17.1 min
CC1OC(OCC2OC(Oc3c(-c4ccc(O)c(O)c4)oc4cc(O)cc(O)c4c3=O)C(O)C(O)C2O)C(O)C(O)C1O (stereo not given) | 12.6 min
O=c1cc(-c2ccc(O)c(O)c2)oc2cc(OC3OC(CO)C(O)C(O)C3O)cc(O)c12 (stereo not given) | 12.7 min
O=C(C=Cc1ccc(O)c(O)c1)OC1CC(O)(C(=O)O)CC(O)C1O (stereo not given) | 8.3 min
O=C1c2c(O)cc(O)cc2OC(c2ccc(O)c(O)c2)C1O (stereo not given) | 13.3 min
O=C(O)Cc1ccc(O)cc1 | 8.61 min
COc1cc(C=CC(=O)O)cc(OC)c1O | 12.7 min
O=C1c2c(O)cc(O)cc2OC(c2ccc(O)cc2)C1O (stereo not given) | 14.8 min
O=C(O)CCc1ccc(O)c(O)c1 | 8.65 min
O=C(CCc1ccc(O)cc1)c1c(O)cc(O)cc1OC1OC(CO)C(O)C(O)C1O (stereo not given) | 13.7 min
O=c1c(O)c(-c2ccccc2)oc2cc(O)cc(O)c12 | 20.3 min
Oc1cc(O)c2c(c1)OC(c1ccc(O)c(O)c1)C(O)C2c1c(O)cc(O)c2c1OC(c1ccc(O)c(O)c1)C(O)C2 (stereo not given) | 10.2 min
O=C(O)c1ccc(O)c(O)c1 | 7.05 min
O=C(CCc1ccc(O)cc1)c1c(O)cc(O)cc1O | 17 min
O=c1cc(-c2ccc(O)c(O)c2)oc2cc(O)cc(O)c12 | 16.6 min
COc1cc(CCC(=O)O)ccc1O | 11.3 min
O=c1c(O)c(-c2ccc(O)c(O)c2)oc2cc(O)cc(O)c12 | 16.7 min
O=C(O)c1cc(O)c(O)c(O)c1 | 4.79 min
CC1OC(Oc2c(-c3ccc(O)c(O)c3)oc3cc(O)cc(O)c3c2=O)C(O)C(O)C1O (stereo not given) | 14 min
O=c1cc(-c2ccc(O)cc2)oc2cc(OC3OC(CO)C(O)C(O)C3O)cc(O)c12 (stereo not given) | 13.7 min
